From paper PMC9822133, “Design, Synthesis and Antiproliferative Evaluation of Bis-Indole Derivatives with a Phenyl Linker: Focus on Autophagy” (Molecules, 2022)

Tests used:
[1] = system: A549 cells; experiment: BrdU cell proliferation assay; type: cell-based; conditions: Homo sapiens; A549, 72 h of incubation, 5-30 μM; read-out: IC50, BrdU incorporation
Procedure: Measurement of the BrdU, a thymidine analogue, is a sensitive method used for the detection of DNA synthesis during the S phase of the cell cycle.
A549 tumor cells were plated at a density of 5 × 10^3 cells/well in a volume of 80 µL (96-well plates). After 24 h of incubation in the respective medium, we added the indole phytoalexin 49 in concentrations of 5–30 µM. After 48 h of incubation with the test substance, we added BrdU labeling solution and incubated for another 24 h. Subsequently, the cells were fixed for 30 min with a fixing solution, aspirated and incubated with peroxidase-conjugated anti-BrdU antibody (100 µL, 1:100). After washing with washing buffer 3 times, TMB substrate solution (tetramethylbenzidine, Roche, Basel, Switzerland) was added in a volume of 100 uL to each well. During the reaction, 25 µL of 1M H2SO4 was added as a stop solution, and the amount of BrdU incorporated was detected with an automated Cytation™ 3 Cell Imaging Multi-Mode Reader (Biotek, Winooski, VT, USA) at a wavelength of 450 nm. Three independent analyses were performed.

[2] = system: A549; experiment: MTT screening assay, A549; type: cell-based; conditions: Homo sapiens, 72 h incubation
Excerpt: (§1) The ability of newly synthesized indole phytoalexins to suppress cell proliferation was screened in vitro on eight cancer cell lines including human colorectal carcinoma (Caco-2 and HCT116), human cervical cancer (HeLa), human breast adenocarcinoma (MCF-7, MDA-MB-231), human alveolar adenocarcinoma (A549) and human leukemic T cell lymphoma (Jurkat), and two non-cancer cell lines (MCF-10A, Cos-7).
(§2) The cell lines used for this study were Caco-2 (human colorectal adenocarcinoma cell line, American Type Culture Collection, Manassas, VA, USA (ATCC)), HCT116 (human colorectal carcinoma cells European Collection of Authenticated Cell Cultures, Salisbury, UK (ECACC)), HeLa (human cervical tumor cells, ECACC), MCF-7 (human breast tumor cells, ECACC), MDA-MB-231 (human breast tumor cells, ATCC), A549 (human lung carcinoma cells, ATCC), BLM (human melanoma lung metastases, a gift from prof. K. Smetana, Institute of Anatomy, Charles University in Prague), Jurkat (human leukemia cell line, ECACC), Cos-7 (immortalized monkey kidney fibroblasts, ATCC) and MCF-10A (human mammary epithelial cells, ATCC). Caco-2, MCF-7, BLM, Cos-7 and A549 cells were cultured in Dulbecco’s Modified Eagle’s Medium (DMEM) with high glucose and sodium pyruvate (GE Healthcare, Piscataway, NJ, USA); HCT116 lines, HeLa, MDA-MB-231 and Jurkat were cultured in RPMI-1640 medium; and MCF10A cells were cultured in high glucose DMEM/F12 (Dulbecco’s Modified Eagle’s Medium F12). The media were enriched with 10% fetal bovine serum (FBS) and a 1% solution of a mixture of antibiotics and antimycotics 1× HyClone™ (GE Healthcare, Chicago, IL, USA). DMEM/F12 medium was supplemented with epidermal growth factor (EGF) (20 ng/mL final), hydrocortisone (0.5 μg/mL final) and insulin (10 μg/mL final) (Sigma-Aldrich Chemie, Steinheim, Germany). The cells were placed in an incubator at 37 °C with humidified air containing 5% CO2.
The MTT assay is a colorimetric method used to quantify the metabolic activity of cells. MTT (3-(4,5-di-methylthiazol-2-yl)2,5-diphenyltetrazolium bromide) (Sigma-Aldrich Chemie, Steinheim, Germany) is reduced by oxidoreductases in the cytosol of cells to light-absorbing formazan, the presence of which can be measured spectrophotometrically and determines the half-maximal inhibitory concentration (IC50). A549 cells were seeded in […] culture plates at a density of 5 × 10^3 per well. […]
We also incubated the cells with chloroquine at concentrations of 5–20 µM, which was added 1 h before the addition of the test substance, and cisplatin at concentrations of 3–10 µM. […] After 24 h, the absorbance was measured at a wavelength of 540 nm using an automated Cytation™ 3 Cell Imaging Multi-Mode Reader (Biotek, Winooski, VT, USA). […]

[3] = system: MCF10A; experiment: MTT screening assay, MCF10A non-cancer cells; type: cell-based, human
Excerpt: as §1, §2
The MTT assay is a colorimetric method used to quantify the metabolic activity of cells. MTT (3-(4,5-di-methylthiazol-2-yl)2,5-diphenyltetrazolium bromide) (Sigma-Aldrich Chemie, Steinheim, Germany) is reduced by oxidoreductases in the cytosol of cells to light-absorbing formazan, the presence of which can be measured spectrophotometrically and determines the half-maximal inhibitory concentration (IC50). A549 cells were seeded in […] culture plates at a density of 5 × 10^3 per well. After 24 h of cultivation, the tested substance 49 was added in concentrations of 10, 50 and 100 µM.
We also incubated the cells with chloroquine at concentrations of 5–20 µM, which was added 1 h before the addition of the test substance, and cisplatin at concentrations of 3–10 µM. Cisplatin was added 24 h after the addition of 49. After 72 h of incubation, 10 µL of MTT (5 mg/mL) was added to each well. After 4 h, formazan crystals formed in the wells, which were dissolved in 100 uL of 10% SDS (sodium dodecyl sulfate). After 24 h, the absorbance was measured at a wavelength of 540 nm using an automated Cytation™ 3 Cell Imaging Multi-Mode Reader (Biotek, Winooski, VT, USA). These experiments were performed in three independent replicates.

CC(C)(C)OC(=O)n1cc(CNC(=O)Nc2ccc(NC(=O)NCc3cn(C(=O)OC(C)(C)C)c4ccccc34)cc2)c2ccccc21 [Compound 49, N,N′-(1,4-phenylene)bis{N′-[1-(tert-butoxycarbonyl)indol-3-yl]methyl (urea)}]
IC50 [1]: 16.1 µM | IC50 [2]: 8.7 ± 0.1 µM | IC50 ([3]; Homo sapiens, MCF-10A, 72 h incubation, MTT, non-cancer cells): 55.1 ± 4.1 µM | Selectivity index—A549 cells vs. non-cancer cells (MCF10A) ([3]; IC50 MCF10A / IC50 A549): 6.3
